Test results from patent publication US20240277006A1, “ANTIBIOTIC-FREE ANTIMICROBIAL FEED ADDITIVES AND ANTIMICROBIAL COMPOSITIONS” (Sláinte Beoga Teoranta, priority 2018, published 2024).

Test system: E. coli (1103 DSMZ)
Assay: Checkerboard assay, composition with antibiotic
Assay type: cell-based
Details: composition comprising a source of iodide ions and a source of hydrogen peroxide plus antibiotic
Experimental: Checkerboard assays were carried out to determine if there is a synergistic antagonistic effect with the addition of an antibiotic to a composition comprising a source of iodide ions and a source of hydrogen peroxide. • E. coli (1103 DSMZ) was used for tests • These tests were carried out in lysogeny broth (lb) • Antibiotics tested were ampicillin and gentamycin • Procedure: • 50 μl antibiotic • 100 μl composition • 150 μl 10^5 cells in LB Results
Cells shaded in dark grey represent sub-inhibitory concentrations where growth prevailed. Bacterial growth was prevented for the remaining cells. […] However, in the presence of both the composition and the antibiotic, the concentrations required to achieve a kill are lower—in other words, the combined MIC is lower. These can be seen by the entries marked with a star (*).

Row | SMILES | Effect of the antibiotic in combination with the composition
1 | CC[C@H]1OC(=O)[C@H](C)[C@@H](O[C@H]2C[C@@](C)(OC)[C@@H](O)[C@H](C)O2)[C@H](C)[C@@H](O[C@@H]2O[C@H](C)C[C@H](N(C)C)[C@H]2O)[C@](C)(O)C[C@@H](C)C(=O)[C@H](C)[C@@H](O)[C@]1(C)O [erythromycin] | synergistic effect
2 | CC[C@H]1OC(=O)[C@H](C)[C@@H](O[C@H]2C[C@@](C)(OC)[C@@H](O)[C@H](C)O2)[C@H](C)[C@@H](O[C@@H]2O[C@H](C)C[C@H](N(C)C)[C@H]2O)[C@](C)(OC)C[C@@H](C)C(=O)[C@H](C)[C@@H](O)[C@]1(C)O [clarithromycin] | synergistic effect
